Assay results reported in patent US20230404958A1, “AGENT FOR […] DAMAGE INDUCED BY RHABDOMYOLYSIS” (Niigata University, priority 2021, published 2023).

Key:
[1] = system: rhabdomyolysis model mice; conditions: 400 mg/kg intraperitoneally; 24 hours after glycerol administration; vs normal saline control group; FIG. 1
[2] = system: uptake of each ligand into kidney tissues through megalin; conditions: cilastatin sodium 400 mg/kg intraperitoneally, urine collected 3 hours
Experimental: Cilastatin was administered to mice and changes in concentrations of each ligand in urine were observed.
Five mice (male, aged 12 weeks C57BL/6) were intraperitoneally administered with 400 mg/kg (diluted in 100 μL of normal saline, cilastatin-treated group) of cilastatin sodium (Sigma-Aldrich Japan K.K., C5743), and then put in a metabolic cage for 3 hours to collect urine, and the urines of 5 mice were combined. Additionally, 100 μL of normal saline was administered to another group of 5 mice (control group), and the same experiment as above was conducted.
Proteins were isolated from the obtained urine samples by electrophoresis (SDS-polyacrylamide gel), reductively alkylated (using dithiothreitol and iodoacetamide), digested with trypsin, and the obtained peptides were extracted to obtain a solid.
To the obtained solid, 15 μL of 0.3% formic acid (FA) was added, shaken for 5 minutes, sonicated for 1 minute, and shaken again for 5 minutes. The resultant mixture was spun down, applied to a membrane filter having a pore diameter of 0.45 μm (ULtra free-MC, HV, 0.45 μm, Millipore), centrifuged at 10,000 rpm for 5 minutes, and the sample passed through the filter was subjected to LCMS analysis.
AnaLyst® TF1.6 (AB SCIEX) was used as an LCMS/MS data acquisition and analysis software, and the obtained raw data were converted to a peak list file (mgf file format), whereby MS/MS Ion Search (MIS search) was conducted using Matrix Science Mascot daemon, Mascot server 2.2.1. The sequence data base used was Uniprot, Swiss-Prot. Significance threshold was set to 0.05 (false discovery rate of less than 5%), and the proteins having 2 or more peptides exceeding the identification standard were listed as identified proteins.
Raw data were acquired 2 times per sample at LCMS to cover the issue of analysis reproducibility at LCMS, and the peak list files obtained from the 2 runs were combined and analyzed using Mascot (Ohara et al., 2018, PLoS One, vol. 13, 1, e0204160).
To the proteins identified in common in 2 groups when compared, the spectral count method was used, which is a label-free comparative, semiquantitative analysis method utilizing a principle that a large number of peptide fragments will be identified in those expressed at high levels, resulting in the increase in the number of MS/MS. In other words, the proteins identified in both of the cilastatin-treated group and control group were calculated for an SpC/L ratio (spectral abundance factor: SAF) of the cilastatin-treated group/control group, and the proteins having an SpC/L ratio of 2.0 or more were listed as the proteins abundant in urine of the cilastatin-treated group.

[3] = target: megalin (binding to Hx) (Rattus norvegicus, UniProt P98158); conditions: 1 mg of cilastatin injected into buffer (200 μL) in advance; FIG. 2-1
megalin (binding to Hx), sequence (P98158 26-4660): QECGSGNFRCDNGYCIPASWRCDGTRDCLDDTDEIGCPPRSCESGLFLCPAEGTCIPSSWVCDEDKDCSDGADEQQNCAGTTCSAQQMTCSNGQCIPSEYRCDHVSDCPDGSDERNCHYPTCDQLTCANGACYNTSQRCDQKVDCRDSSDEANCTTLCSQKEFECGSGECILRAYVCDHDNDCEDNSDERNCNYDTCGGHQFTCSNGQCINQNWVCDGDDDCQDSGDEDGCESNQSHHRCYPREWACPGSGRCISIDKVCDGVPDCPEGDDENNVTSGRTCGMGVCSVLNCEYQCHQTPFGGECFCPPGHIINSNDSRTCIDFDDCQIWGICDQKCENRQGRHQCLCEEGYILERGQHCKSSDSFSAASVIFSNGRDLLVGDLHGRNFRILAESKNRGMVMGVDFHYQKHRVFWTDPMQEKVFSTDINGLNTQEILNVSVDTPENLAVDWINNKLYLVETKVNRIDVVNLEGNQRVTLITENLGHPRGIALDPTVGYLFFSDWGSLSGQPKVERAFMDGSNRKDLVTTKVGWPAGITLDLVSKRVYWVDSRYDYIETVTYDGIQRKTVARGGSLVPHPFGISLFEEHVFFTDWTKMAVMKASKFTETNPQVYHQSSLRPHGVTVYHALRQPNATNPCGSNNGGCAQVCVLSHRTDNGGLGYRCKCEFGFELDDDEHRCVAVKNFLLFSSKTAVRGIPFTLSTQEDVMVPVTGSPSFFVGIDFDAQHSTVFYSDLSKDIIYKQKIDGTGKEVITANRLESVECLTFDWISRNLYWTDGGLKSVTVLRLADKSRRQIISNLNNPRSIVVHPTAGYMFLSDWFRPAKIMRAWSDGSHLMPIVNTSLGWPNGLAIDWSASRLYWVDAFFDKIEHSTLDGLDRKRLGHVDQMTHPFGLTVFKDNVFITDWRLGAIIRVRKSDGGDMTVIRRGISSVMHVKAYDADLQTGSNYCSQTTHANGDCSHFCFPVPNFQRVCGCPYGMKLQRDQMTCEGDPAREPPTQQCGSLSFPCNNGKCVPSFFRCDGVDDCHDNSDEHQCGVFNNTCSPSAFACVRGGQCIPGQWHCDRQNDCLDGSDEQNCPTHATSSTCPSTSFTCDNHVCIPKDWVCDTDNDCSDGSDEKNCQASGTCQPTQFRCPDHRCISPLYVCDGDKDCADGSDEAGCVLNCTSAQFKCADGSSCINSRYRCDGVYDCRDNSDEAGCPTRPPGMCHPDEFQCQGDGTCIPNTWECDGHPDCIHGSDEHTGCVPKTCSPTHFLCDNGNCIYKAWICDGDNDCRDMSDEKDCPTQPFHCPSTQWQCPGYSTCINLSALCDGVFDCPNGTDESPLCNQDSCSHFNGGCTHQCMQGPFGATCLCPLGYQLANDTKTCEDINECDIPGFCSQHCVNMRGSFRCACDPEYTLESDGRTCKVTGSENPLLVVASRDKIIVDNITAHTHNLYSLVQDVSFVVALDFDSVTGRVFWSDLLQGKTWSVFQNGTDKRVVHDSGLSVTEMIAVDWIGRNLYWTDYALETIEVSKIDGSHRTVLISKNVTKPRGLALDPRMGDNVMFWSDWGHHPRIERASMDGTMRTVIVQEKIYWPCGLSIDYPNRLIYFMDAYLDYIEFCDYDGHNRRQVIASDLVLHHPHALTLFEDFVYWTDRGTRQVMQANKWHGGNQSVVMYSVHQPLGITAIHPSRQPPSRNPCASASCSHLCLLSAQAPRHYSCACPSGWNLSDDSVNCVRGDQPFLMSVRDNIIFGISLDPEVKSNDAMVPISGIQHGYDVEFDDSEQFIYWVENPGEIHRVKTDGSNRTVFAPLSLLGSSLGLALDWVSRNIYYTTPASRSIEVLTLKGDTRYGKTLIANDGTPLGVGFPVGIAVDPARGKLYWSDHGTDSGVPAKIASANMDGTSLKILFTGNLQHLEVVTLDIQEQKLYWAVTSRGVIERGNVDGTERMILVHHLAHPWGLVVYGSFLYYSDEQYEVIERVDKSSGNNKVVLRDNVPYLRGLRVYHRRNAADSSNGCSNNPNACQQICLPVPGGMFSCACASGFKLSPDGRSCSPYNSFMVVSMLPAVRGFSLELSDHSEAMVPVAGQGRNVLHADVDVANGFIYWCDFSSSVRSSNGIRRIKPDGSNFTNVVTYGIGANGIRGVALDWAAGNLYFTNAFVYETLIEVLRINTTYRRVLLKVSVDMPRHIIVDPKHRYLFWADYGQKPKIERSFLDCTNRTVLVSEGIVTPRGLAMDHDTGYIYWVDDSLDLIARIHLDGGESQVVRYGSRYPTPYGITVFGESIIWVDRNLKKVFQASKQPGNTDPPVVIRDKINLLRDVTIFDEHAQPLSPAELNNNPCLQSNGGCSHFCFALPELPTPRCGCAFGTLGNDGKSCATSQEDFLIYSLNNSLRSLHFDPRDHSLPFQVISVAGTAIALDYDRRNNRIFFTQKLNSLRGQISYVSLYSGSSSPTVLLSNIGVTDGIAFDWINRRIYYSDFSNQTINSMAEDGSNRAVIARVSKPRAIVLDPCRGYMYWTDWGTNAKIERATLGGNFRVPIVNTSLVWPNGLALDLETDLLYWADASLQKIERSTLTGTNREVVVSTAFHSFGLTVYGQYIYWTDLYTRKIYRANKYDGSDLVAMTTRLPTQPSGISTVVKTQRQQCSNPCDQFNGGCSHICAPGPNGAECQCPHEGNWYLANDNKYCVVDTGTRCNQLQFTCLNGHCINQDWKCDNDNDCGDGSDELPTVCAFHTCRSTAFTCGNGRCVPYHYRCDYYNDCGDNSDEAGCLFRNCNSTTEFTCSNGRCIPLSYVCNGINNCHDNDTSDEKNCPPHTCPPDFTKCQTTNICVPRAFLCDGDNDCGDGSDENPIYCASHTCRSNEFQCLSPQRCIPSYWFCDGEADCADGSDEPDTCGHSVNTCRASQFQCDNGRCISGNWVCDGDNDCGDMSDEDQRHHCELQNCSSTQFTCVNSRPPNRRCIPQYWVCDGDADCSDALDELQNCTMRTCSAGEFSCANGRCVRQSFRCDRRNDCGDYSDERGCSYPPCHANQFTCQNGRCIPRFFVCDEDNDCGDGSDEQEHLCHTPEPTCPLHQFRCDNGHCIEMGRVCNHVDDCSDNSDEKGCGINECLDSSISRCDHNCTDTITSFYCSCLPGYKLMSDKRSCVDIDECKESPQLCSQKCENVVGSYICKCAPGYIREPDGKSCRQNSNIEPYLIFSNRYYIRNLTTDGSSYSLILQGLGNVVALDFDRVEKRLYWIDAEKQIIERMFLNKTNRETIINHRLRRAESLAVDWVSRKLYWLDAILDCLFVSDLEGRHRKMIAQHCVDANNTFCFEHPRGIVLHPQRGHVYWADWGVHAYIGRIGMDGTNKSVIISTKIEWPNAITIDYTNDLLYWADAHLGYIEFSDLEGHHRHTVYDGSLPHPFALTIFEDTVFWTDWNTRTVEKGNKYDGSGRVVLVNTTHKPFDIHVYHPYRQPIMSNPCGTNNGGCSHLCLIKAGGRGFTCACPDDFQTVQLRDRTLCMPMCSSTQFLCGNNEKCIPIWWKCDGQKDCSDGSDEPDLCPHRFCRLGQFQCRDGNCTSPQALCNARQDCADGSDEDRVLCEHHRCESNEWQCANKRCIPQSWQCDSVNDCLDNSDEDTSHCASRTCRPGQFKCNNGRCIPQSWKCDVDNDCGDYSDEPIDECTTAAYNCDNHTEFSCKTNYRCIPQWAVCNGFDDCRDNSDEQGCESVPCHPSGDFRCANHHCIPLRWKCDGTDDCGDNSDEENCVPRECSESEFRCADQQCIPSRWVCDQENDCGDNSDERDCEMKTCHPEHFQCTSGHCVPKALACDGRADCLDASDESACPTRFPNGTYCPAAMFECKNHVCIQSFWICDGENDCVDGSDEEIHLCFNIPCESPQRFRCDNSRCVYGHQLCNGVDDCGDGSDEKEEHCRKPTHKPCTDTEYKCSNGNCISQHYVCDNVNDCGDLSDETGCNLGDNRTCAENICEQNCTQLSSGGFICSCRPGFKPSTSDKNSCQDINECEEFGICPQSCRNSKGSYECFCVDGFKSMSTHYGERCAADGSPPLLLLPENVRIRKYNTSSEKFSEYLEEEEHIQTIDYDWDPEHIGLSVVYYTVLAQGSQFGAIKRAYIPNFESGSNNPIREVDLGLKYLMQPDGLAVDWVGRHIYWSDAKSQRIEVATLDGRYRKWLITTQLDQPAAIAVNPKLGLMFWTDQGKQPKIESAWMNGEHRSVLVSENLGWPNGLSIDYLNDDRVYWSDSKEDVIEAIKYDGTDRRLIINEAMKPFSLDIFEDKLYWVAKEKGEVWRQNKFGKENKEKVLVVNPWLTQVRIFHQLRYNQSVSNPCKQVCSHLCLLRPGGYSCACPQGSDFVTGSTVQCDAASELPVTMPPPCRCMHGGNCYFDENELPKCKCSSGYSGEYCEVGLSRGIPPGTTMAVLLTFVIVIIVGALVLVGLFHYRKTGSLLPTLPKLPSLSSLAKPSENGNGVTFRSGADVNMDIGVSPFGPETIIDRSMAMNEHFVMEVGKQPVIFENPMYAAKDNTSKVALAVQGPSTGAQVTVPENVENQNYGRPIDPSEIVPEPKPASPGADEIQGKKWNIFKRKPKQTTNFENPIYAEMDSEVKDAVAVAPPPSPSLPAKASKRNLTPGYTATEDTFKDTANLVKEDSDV
Source text: (§1) Binding specificity between megalin and each ligand (myoglobin, α1M, and Hx) and the possible binding inhibition by cilastatin were verified using the quartz crystal microbalance (QCM) method by reference to the method described in PTL 2.
(§2) For the ligands to be verified, myoglobin (LifeSpan Biosciences Inc., Rat […] Native Protein, LS-G11201) and Hx (Sino Biological Inc., Rat Hemopexin/HPX protein (His Tag 81025-R08H)) were used. […]
(§3) After each of the ligand- or BSA-immobilized quartz crystal sensor was mounted in the measurement instrument AFFINIX® Q8 (Initium Inc.) and the frequency was confirmed to be stable, 8 μL of a 0.1 mg/mL solution of megalin purified from Sprague-Dawley (SD) rat kidneys according to the method of Orlando et al. was injected and frequency was measured with time.
(§4) More specifically, the megalin solution was reacted with each of the ligand-immobilized quartz crystal sensors placed under the water surface with 200 μL of buffer, and the frequency was measured.
(§5) Additionally, 1 mg of cilastatin was injected into buffer in advance, each of the ligand-immobilized quartz crystal sensors was mounted in the measurement instrument, and after the frequency was confirmed to be stable, the megalin solution was injected and frequency was measured with time, whereby the antagonistic activity of cilastatin against the binding of each ligand to megalin was analyzed. […]

[4] = target: megalin (binding to myoglobin) (Rattus norvegicus, UniProt P98158); conditions: 1 mg of cilastatin injected into buffer (200 μL) in advance; FIG. 2-1
megalin (binding to myoglobin), sequence (P98158 26-4660): as above
Source text: as §1, §2, §3, §4, §5

[5] = system: myoglobin uptake into kidney tissues; conditions: rhabdomyolysis model mice; 24 hours after glycerol dosing; anti-myoglobin immunostaining; FIG. 5
Experimental: In line with Test Example 1, 50% glycerol was administered to C57BL/6 (male, aged 10-12 weeks), thereby constructing rhabdomyolysis model mice.
Twenty-four hours after glycerol dosing, a portion containing a kidney pedicle was sliced to 3 mm thickness from the right kidney and fixed with 4% paraformaldehyde phosphate buffer.

[6] = target: megalin (binding to α1M) (Rattus norvegicus, UniProt P98158); conditions: 1 mg/200 μL of cilastatin injected into buffer in advance; FIG. 2-2
megalin (binding to α1M), sequence (P98158 26-4660): as above
Source text: as §1

[7] = cilastatin-treated group/control group, pooled from 5 mice

drop of quartz crystal signals on adding megalin to Hx-immobilized sensor (megalin-Hx binding) [3]: inhibited | drop of quartz crystal signals on adding megalin to myoglobin-immobilized sensor (megalin-myoglobin binding) [4]: inhibited | drop of quartz crystal signals on adding α1M to megalin-immobilized sensor (megalin-α1M binding) [6]: inhibited
Compound: CC1(C)C[C@@H]1C(=O)N/C(=C\CCCCSC[C@H](N)C(=O)O)C(=O)O [cilastatin, (Z)-7-[[(R)-2-Amino-2-carboxyethyl]thio]-2-[[[(S)-2,2-dimethylcyclopropyl]carbonyl]amino]-2-heptenoic acid]
serum potassium [1]: lower values than the control group | number of urinary proteins having an SpC/L ratio of the cilastatin-treated group/control group of 2.0 or more [2]: 63 kinds | SpC/L ratio, urinary Albumin [2, 7]: 1.10 | SpC/L ratio, urinary Clusterin [2, 7]: 0.73 | SpC/L ratio, urinary Transthyretin [2, 7]: 1.00 | SpC/L ratio, urinary Vitamin D-binding protein [2, 7]: 0.80 | amounts of myoglobin taken up into kidney tissues [5]: reduced
